The record followed here is ChEMBL document CHEMBL1135811, “4-(Phenylsulfonyl)piperidines: novel, selective, and bioavailable 5-HT(2A) receptor antagonists” (J Med Chem, 2002).

Assay type in all cases: ADME, organism-based
Series [1] in a line: Bioavailability. Conditions: eutheria, in vivo.
Series [2] can be described thus: Mean residence time following intravenous dosing. Conditions: in vivo.
Series [3] is described as follows: Area under concentration-time curve for 0-4 hr after oral dose 1 mg/kg. The arrangement: time < 4 hr, dose 1 mg/kg, route oral. As to conditions: in vivo.
A short description of series [4]: Maximum blood concentration after oral dose 1 mg/kg. The arrangement: dose 1 mg/kg, route oral.
Series [5] can be described thus: (§1) Maximum blood concentration after oral dose of […]. Also on record: dose 1.2 mg/kg, route oral.
Series [6] is described as follows: (§2) Area under concentration-time curve for 0-4 hr after oral dose of […]. The arrangement: time < 4 hr, dose 1.2 mg/kg, route oral. As to conditions: in vivo.
A short description of series [7]: Maximum blood concentration after oral dose of 2.0 mg/kg. The arrangement: dose 2 mg/kg, route oral.
The nature of series [8]: Area under concentration-time curve for 0-4 hr after oral dose of 2.0 mg/kg. The arrangement: time < 4 hr, dose 2 mg/kg, route oral. As to conditions: in vivo.
The nature of series [9]: Area under concentration-time curve for 0-4 hr after oral dose of 10 mg/kg. Also on record: time < 4 hr, dose 10 mg/kg, route oral. Conditions: in vivo.
The nature of series [10]: Maximum blood concentration after oral dose of 10 mg/kg. The arrangement: dose 10 mg/kg, route oral.
Series [11] can be described thus: as §1. The arrangement: dose 1.5 mg/kg, route oral.
Series [12] is described as follows: as §2. Conditions: in vivo. The arrangement: time < 4 hr, dose 1.5 mg/kg, route oral.

As for `O=C(CN1CCC(S(=O)(=O)c2ccccc2)CC1)c1ccc(F)cc1`, the bioavailability (in general, the share of a dose that reaches the circulation, judged against a reference dose that is usually intravenous) in series [1] came to 30%. Moreover, the MRT (usually the average time that molecules of a dose stay in the body) in series [2] turned out to be 0.7 h. In addition, the AUC(0-t) (commonly exposure summed from dosing to a finite time, without extrapolation to infinity) at 4 h in series [3] amounted to 171 ng·h/mL. Also, the maximum concentration (Cmax) (usually the peak of the concentration-time curve) in series [4] was 140 ng/mL.

For the molecule `COc1cccc([C@H](O)C2CCN(CCc3ccc(F)cc3)CC2)c1OC` [VOLINANSERIN], the bioavailability in series [1] was 3%. The MRT in series [2] worked out at 1 h. The molecule also yielded a Cmax in [5] of 2 ng/mL. The same molecule yielded an area under the curve AUC(0-t) at 4 h in series [6] of 8 ng·h/mL.

In the case of `N#Cc1ccc(S(=O)(=O)C2CCN(CCc3ccc(F)cc3F)CC2)cc1`, in [1], the bioavailability came to 23%. For the same molecule, in [2], the mean residence time (MRT) was determined as 2.3 h. In [3], this molecule had an AUC(0-t) at 4 h of 177 ng·h/mL. The molecule also showed a Cmax in series [4] of 30 ng/mL.

In series [7], `O=S1(=O)c2ccccc2CCC12CCN(CCc1ccc(F)cc1F)CC2` showed a peak concentration (Cmax) of 1 ng/mL. The area under the curve AUC(0-t) at 4 h in series [8] came out at 1 ng·h/mL.

In the case of `NC(=O)c1ccc(S(=O)(=O)C2CCN(CCc3ccc(F)cc3F)CC2)cc1`, in series [1], the bioavailability is 22%. The mean residence time MRT in series [2] came out at 0.9 h. Moreover, the AUC(0-t) at 4 h in series [3] is 199 ng·h/mL. Moreover, the peak level in series [4] (Cmax) was 70 ng/mL.

`NC(=O)c1cccc(S(=O)(=O)C2CCN(CCc3ccc(F)cc3F)CC2)c1` came in with a bioavailability in series [1] of 24%. In addition, in series [2], the MRT stood at 1.1 h. Further, the AUC(0-t) at 4 h in series [3] was 115 ng·h/mL. In series [4], the highest concentration (Cmax) was found to be 38 ng/mL.

As to `OC1c2ccccc2CCC12CCN(CCc1ccccc1)CC2` (stereo unspecified), in series [7], the concentration peaked (Cmax) at 2 ng/mL. The molecule further returned an AUC(0-t) at 4 h in [8] of 3 ng·h/mL.

`O=S(=O)(c1ccccc1)C1CCN(CCc2ccc(F)cc2F)CC1`: the bioavailability in [1] is 2%. Also, in series [9], the area under the curve AUC(0-t) at 4 h stood at 100 ng·h/mL. Besides, the MRT in series [2] came out at 1 h. For the same molecule, the maximum concentration (Cmax) in series [10] came out at 23 ng/mL.

Take `COc1ccc2c(c1)CCC1(CCN(CCc3ccc(F)cc3F)CC1)O2`: the highest concentration (Cmax) in [11] was determined as 2 ng/mL. The MRT in [2] is 1.5 h. Moreover, the exposure AUC(0-t) at 4 h in [12] amounted to 4 ng·h/mL.
